Source: ChEMBL document CHEMBL1151757, “Synthesis, radiosynthesis, and biological evaluation of fluorine-18-labeled 2beta-carbo(fluoroalkoxy)-3beta-(3'-((Z)-2-haloethenyl)phenyl)nortropanes: candidate radioligands for in vivo imaging of the serotonin transporter with positron emission tomography” (J Med Chem, 2008)

Tests used:
[1] = Drug uptake in anesthetized cynomolgus monkey brain cerebellum after 207.5 mins postinjection; type: ADME, organism-based, Macaca fascicularis; conditions: in vivo
[2] = Drug uptake in awake rhesus monkey brain pons after 75 mins postinjection; type: ADME, organism-based, Macaca mulatta; conditions: in vivo, 1.25 h
[3] = Drug uptake in awake rhesus monkey brain midbrain after 25 mins postinjection; type: ADME, organism-based, Macaca mulatta; conditions: in vivo
[4] = Drug uptake in awake rhesus monkey brain medulla after 95 mins postinjection; type: ADME, organism-based, Macaca mulatta; conditions: in vivo
[5] = Drug uptake in awake rhesus monkey brain caudate after 4.5 mins postinjection; type: ADME, organism-based, Macaca mulatta, Caudate nucleus; conditions: in vivo, 0.075 h
[6] = Drug uptake in awake rhesus monkey brain frontal lobe after 65 mins postinjection; type: ADME, organism-based, Macaca mulatta; conditions: in vivo
[7] = Drug uptake in awake rhesus monkey brain medulla after 65 mins postinjection; type: ADME, organism-based, Macaca mulatta; conditions: in vivo
[8] = test system: Putamen; assay: Drug uptake in anesthetized cynomolgus monkey brain putamen after 197.5 mins postinjection; type: ADME, organism-based, Macaca fascicularis; conditions: in vivo
[9] = test system: Thalamus; assay: Drug uptake in anesthetized cynomolgus monkey brain thalamus after 202.5 mins postinjection; type: ADME, organism-based, Macaca fascicularis; conditions: in vivo, 3.375 h
[10] = Drug uptake in awake rhesus monkey brain caudate after 25 mins postinjection; type: ADME, organism-based, Macaca mulatta, Caudate nucleus; conditions: in vivo
[11] = Drug uptake in awake rhesus monkey brain thalamus after 65 mins postinjection; type: ADME, organism-based, Macaca mulatta; conditions: in vivo
[12] = Drug uptake in awake rhesus monkey brain midbrain after 105 mins postinjection; type: ADME, organism-based, Macaca mulatta; conditions: in vivo, 1.75 h
[13] = test system: Putamen; assay: Drug uptake in anesthetized cynomolgus monkey brain putamen after 187.5 mins postinjection; type: ADME, organism-based, Macaca fascicularis; conditions: in vivo, 3.125 h
[14] = Drug uptake in awake rhesus monkey brain putamen after 75 mins postinjection; type: ADME, organism-based, Macaca mulatta; conditions: in vivo, 1.25 h
[15] = test system: Thalamus; assay: Drug uptake in anesthetized cynomolgus monkey brain thalamus after 187.5 mins postinjection; type: ADME, organism-based, Macaca fascicularis; conditions: in vivo, 3.125 h
[16] = Drug uptake in anesthetized cynomolgus monkey brain cerebellum after 197.5 mins postinjection; type: ADME, organism-based, Macaca fascicularis; conditions: in vivo
[17] = Drug uptake in awake rhesus monkey brain frontal lobe after 75 mins postinjection; type: ADME, organism-based, Macaca mulatta; conditions: in vivo, 1.25 h
[18] = Drug uptake in awake rhesus monkey brain medulla after 55 mins postinjection; type: ADME, organism-based, Macaca mulatta; conditions: in vivo
[19] = Drug uptake in anesthetized cynomolgus monkey brain frontal lobe after 197.5 mins postinjection; type: ADME, organism-based, Macaca fascicularis; conditions: in vivo
[20] = Ratio of drug uptake in midbrain to cerebellum in awake rhesus monkey after 7.5 mins postinjection; type: ADME, organism-based, Macaca mulatta; conditions: in vivo, 0.125 h
[21] = Drug uptake in awake rhesus monkey brain thalamus after 10.5 mins postinjection; type: ADME, organism-based, Macaca mulatta; conditions: in vivo, 0.175 h
[22] = test system: Putamen; assay: Drug uptake in anesthetized cynomolgus monkey brain putamen after 182.5 mins postinjection; type: ADME, organism-based, Macaca fascicularis; conditions: in vivo
[23] = Drug uptake in awake rhesus monkey brain medulla after 35 mins postinjection; type: ADME, organism-based, Macaca mulatta; conditions: in vivo
[24] = Drug uptake in awake rhesus monkey brain putamen after 65 mins postinjection; type: ADME, organism-based, Macaca mulatta; conditions: in vivo
[25] = test system: Midbrain; assay: Drug uptake in anesthetized cynomolgus monkey brain midbrain after 197.5 mins postinjection; type: ADME, organism-based, Macaca fascicularis; conditions: in vivo
[26] = Drug uptake in awake rhesus monkey brain frontal lobe after 105 mins postinjection; type: ADME, organism-based, Macaca mulatta; conditions: in vivo, 1.75 h
[27] = Drug uptake in awake rhesus monkey brain medulla after 115 mins postinjection; type: ADME, organism-based, Macaca mulatta; conditions: in vivo
[28] = test system: Medulla; assay: Drug uptake in anesthetized cynomolgus monkey brain medulla after 202.5 mins postinjection; type: ADME, organism-based, Macaca fascicularis; conditions: in vivo, 3.375 h
[29] = Drug uptake in awake rhesus monkey brain pons after 65 mins postinjection; type: ADME, organism-based, Macaca mulatta; conditions: in vivo
[30] = test system: Medulla; assay: Drug uptake in anesthetized cynomolgus monkey brain medulla after 192.5 mins postinjection; type: ADME, organism-based, Macaca fascicularis; conditions: in vivo
[31] = test system: Medulla; assay: Drug uptake in anesthetized cynomolgus monkey brain medulla after 207.5 mins postinjection; type: ADME, organism-based, Macaca fascicularis; conditions: in vivo
[32] = Ratio of drug uptake in thalamus to cerebellum in awake rhesus monkey after 105 mins postinjection; type: ADME, organism-based, Macaca mulatta; conditions: in vivo, 1.75 h
[33] = test system: Thalamus; assay: Drug uptake in anesthetized cynomolgus monkey brain thalamus after 182.5 mins postinjection; type: ADME, organism-based, Macaca fascicularis; conditions: in vivo
[34] = test system: Caudate; assay: Drug uptake in anesthetized cynomolgus monkey brain caudate after 192.5 mins postinjection; type: ADME, organism-based, Macaca fascicularis, Caudate nucleus; conditions: in vivo
[35] = Ratio of drug uptake in putamen to cerebellum in awake rhesus monkey after 105 mins postinjection; type: ADME, organism-based, Macaca mulatta; conditions: in vivo, 1.75 h
[36] = Drug uptake in awake rhesus monkey brain caudate after 95 mins postinjection; type: ADME, organism-based, Macaca mulatta, Caudate nucleus; conditions: in vivo
[37] = test system: Caudate; assay: Drug uptake in anesthetized cynomolgus monkey brain caudate after 197.5 mins postinjection; type: ADME, organism-based, Macaca fascicularis, Caudate nucleus; conditions: in vivo
[38] = Ratio of drug uptake in midbrain to cerebellum in awake rhesus monkey after 85 mins postinjection; type: ADME, organism-based, Macaca mulatta; conditions: in vivo
[39] = Drug uptake in anesthetized cynomolgus monkey brain occipital lobe after 202.5 mins postinjection; type: ADME, organism-based, Macaca fascicularis; conditions: in vivo, 3.375 h
[40] = Drug uptake in awake rhesus monkey brain caudate after 85 mins postinjection; type: ADME, organism-based, Macaca mulatta, Caudate nucleus; conditions: in vivo
[41] = Ratio of drug uptake in thalamus to cerebellum in awake rhesus monkey after 17.5 mins postinjection; type: ADME, organism-based, Macaca mulatta; conditions: in vivo
[42] = Drug uptake in awake rhesus monkey brain medulla after 85 mins postinjection; type: ADME, organism-based, Macaca mulatta; conditions: in vivo
[43] = Drug uptake in awake rhesus monkey brain pons after 7.5 mins postinjection; type: ADME, organism-based, Macaca mulatta; conditions: in vivo, 0.125 h
[44] = Drug uptake in awake rhesus monkey brain midbrain after 55 mins postinjection; type: ADME, organism-based, Macaca mulatta; conditions: in vivo
[45] = test system: Midbrain; assay: Drug uptake in anesthetized cynomolgus monkey brain midbrain after 192.5 mins postinjection; type: ADME, organism-based, Macaca fascicularis; conditions: in vivo
[46] = test system: Putamen; assay: Drug uptake in anesthetized cynomolgus monkey brain putamen after 207.5 mins postinjection; type: ADME, organism-based, Macaca fascicularis; conditions: in vivo
[47] = Drug uptake in anesthetized cynomolgus monkey brain frontal lobe after 187.5 mins postinjection; type: ADME, organism-based, Macaca fascicularis; conditions: in vivo, 3.125 h
[48] = Drug uptake in awake rhesus monkey brain medulla after 7.5 mins postinjection; type: ADME, organism-based, Macaca mulatta; conditions: in vivo, 0.125 h
[49] = Drug uptake in awake rhesus monkey brain thalamus after 95 mins postinjection; type: ADME, organism-based, Macaca mulatta; conditions: in vivo
[50] = test system: Midbrain; assay: Drug uptake in anesthetized cynomolgus monkey brain midbrain after 202.5 mins postinjection; type: ADME, organism-based, Macaca fascicularis; conditions: in vivo, 3.375 h
[51] = Ratio of drug uptake in frontal lobe to cerebellum in awake rhesus monkey after 35 mins postinjection; type: ADME, organism-based, Macaca mulatta; conditions: in vivo
[52] = test system: Caudate; assay: Drug uptake in anesthetized cynomolgus monkey brain caudate after 207.5 mins postinjection; type: ADME, organism-based, Macaca fascicularis, Caudate nucleus; conditions: in vivo
[53] = Drug uptake in awake rhesus monkey brain frontal lobe after 25 mins postinjection; type: ADME, organism-based, Macaca mulatta; conditions: in vivo
[54] = test system: Thalamus; assay: Drug uptake in anesthetized cynomolgus monkey brain thalamus after 197.5 mins postinjection; type: ADME, organism-based, Macaca fascicularis; conditions: in vivo
[55] = test system: Thalamus; assay: Drug uptake in anesthetized cynomolgus monkey brain thalamus after 207.5 mins postinjection; type: ADME, organism-based, Macaca fascicularis; conditions: in vivo
[56] = Ratio of drug uptake in medulla to cerebellum in awake rhesus monkey after 4.5 mins postinjection; type: ADME, organism-based, Macaca mulatta; conditions: in vivo, 0.075 h
[57] = Drug uptake in awake rhesus monkey brain cerebellum after 45 mins postinjection; type: ADME, organism-based, Macaca mulatta; conditions: in vivo, 0.75 h
[58] = test system: Pons; assay: Drug uptake in anesthetized cynomolgus monkey brain pons after 192.5 mins postinjection; type: ADME, organism-based, Macaca fascicularis; conditions: in vivo
[59] = test system: Putamen; assay: Drug uptake in anesthetized cynomolgus monkey brain putamen after 202.5 mins postinjection; type: ADME, organism-based, Macaca fascicularis; conditions: in vivo, 3.375 h
[60] = test system: Medulla; assay: Drug uptake in anesthetized cynomolgus monkey brain medulla after 197.5 mins postinjection; type: ADME, organism-based, Macaca fascicularis; conditions: in vivo

O=C(OCC[18F])C1C2CCC(CC1c1cccc(/C=C\I)c1)N2 (stereo not given) showed a Drug uptake [1] of 1.4, a Drug uptake [2] of 0.14 and a Drug uptake [3] of 0.13. It also gave a Drug uptake [4] of 0.11, a Drug uptake [5] of 0.06 and a Drug uptake [6] of 0.11. The Drug uptake [7] was 0.12, the Drug uptake [8] was 2.63 and the Drug uptake [9] was 2.52. It also gave a Drug uptake [10] of 0.13, a Drug uptake [11] of 0.17 and a Drug uptake [12] of 0.15. For the same compound, the Drug uptake [13] was 2.77, the Drug uptake [14] was 0.17 and the Drug uptake [15] was 2.65. The Drug uptake [16] was 1.41, the Drug uptake [17] was 0.11 and the Drug uptake [18] was 0.12. The Drug uptake [19] was 1.58, the Ratio [20] was 1.1 and the Drug uptake [21] was 0.12. The Drug uptake [22] was 2.78, the Drug uptake [23] was 0.12 and the Drug uptake [24] was 0.16. The Drug uptake [25] was 3.2, the Drug uptake [26] was 0.1 and the Drug uptake [27] was 0.11. For the same compound, the Drug uptake [28] was 2.54, the Drug uptake [29] was 0.14 and the Drug uptake [30] was 2.52. It also gave a Drug uptake [31] of 2.5, a Ratio [32] of 1.7 and a Drug uptake [33] of 2.74. The Drug uptake [34] was 2.28, the Ratio [35] was 1.5 and the Drug uptake [36] was 0.14. The Drug uptake [37] was 2.24, the Ratio [38] was 1.6 and the Drug uptake [39] was 1.33. For the same compound, the Drug uptake [40] was 0.14, the Ratio [41] was 1.3 and the Drug uptake [42] was 0.11. The Drug uptake [43] was 0.08, the Drug uptake [44] was 0.16 and the Drug uptake [45] was 3.24. The Drug uptake [46] was 2.58, the Drug uptake [47] was 1.65 and the Drug uptake [48] was 0.07. The Drug uptake [49] was 0.16, the Drug uptake [50] was 3.15 and the Ratio [51] was 1. The Drug uptake [52] was 2.16, the Drug uptake [53] was 0.11 and the Drug uptake [54] was 2.46. The Drug uptake [55] was 2.43, the Ratio [56] was 1.1 and the Drug uptake [57] was 0.12. The Drug uptake [58] was 2.14, the Drug uptake [59] was 2.63 and the Drug uptake [60] was 2.51.

O=C(OCCC[18F])C1C2CCC(CC1c1cccc(/C=C\Br)c1)N2 (stereo not given) gave a Drug uptake [1] of 1.86, a Drug uptake [8] of 3.78 and a Drug uptake [9] of 3.84. For the same compound, the Drug uptake [13] was 3.87, the Drug uptake [15] was 3.88 and the Drug uptake [16] was 2.16. It also gave a Drug uptake [19] of 2.23, a Drug uptake [22] of 4.09 and a Drug uptake [25] of 4.54. It also gave a Drug uptake [28] of 3.68, a Drug uptake [30] of 3.98 and a Drug uptake [31] of 3.58. For the same compound, the Drug uptake [33] was 3.94, the Drug uptake [34] was 3.75 and the Drug uptake [37] was 3.62. The Drug uptake [39] was 2.71, the Drug uptake [45] was 4.52 and the Drug uptake [46] was 3.65. The Drug uptake [47] was 2.39, the Drug uptake [50] was 4.46 and the Drug uptake [52] was 3.41. For the same compound, the Drug uptake [54] was 3.74, the Drug uptake [55] was 3.35 and the Drug uptake [58] was 3.48. It also gave a Drug uptake [59] of 3.82 and a Drug uptake [60] of 3.73.

Work on O=C(OCC[18F])C1C2CCC(CC1c1ccc(/C=C\I)cc1)N2 (stereo not given) yielded a Drug uptake [2] of 2.75, a Drug uptake [3] of 2.46 and a Drug uptake [4] of 2.35. The Drug uptake [5] was 1.17, the Drug uptake [6] was 2.25 and the Drug uptake [7] was 2.28. For the same compound, the Drug uptake [10] was 2.75, the Drug uptake [11] was 3.48 and the Drug uptake [12] was 3.24. The Drug uptake [14] was 3.38, the Drug uptake [17] was 2.18 and the Drug uptake [18] was 2.48. The Ratio [20] was 1, the Drug uptake [21] was 1.89 and the Drug uptake [23] was 2.46. The Drug uptake [24] was 3.31, the Drug uptake [26] was 2.07 and the Drug uptake [27] was 2.57. The Drug uptake [29] was 2.49, the Ratio [32] was 2.8 and the Ratio [35] was 2.5. For the same compound, the Drug uptake [36] was 3.19, the Ratio [38] was 1.6 and the Drug uptake [40] was 3.27. The Ratio [41] was 1.3, the Drug uptake [42] was 2.66 and the Drug uptake [43] was 1.24. For the same compound, the Drug uptake [44] was 2.76, the Drug uptake [48] was 1.51 and the Drug uptake [49] was 3.79. It also gave a Ratio [51] of 1, a Drug uptake [53] of 2.16 and a Ratio [56] of 1.3. For the same compound, the Drug uptake [57] was 1.93.
